Assay results reported in US20260193293A1, “PEPTIDES CAPABLE OF INHIBITING PROTEIN-PROTEIN INTERACTIONS AT GABAB1A SUBUNIT AND USES THEREOF” (UNIVERSITY OF COPENHAGEN, priority 2022, published 2026).
Like-named read-outs stand apart in the source and are kept apart here. Residues, ends and D or L forms follow the SMILES beside them.

Target: Sushi domains (SD1/2) protein
Assay: Fluorescence polarization (FP) competition assay with AJAP-1probe, calculated Ki
Format: binding
Summary of the method: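 Ki values were derived from IC50s (sigmoidal fits, ≥ triplicate), with probe Kd obtained by saturation titration of SD1/2. Peptides displaced a 25 nM TAMRA-labelled probe; polarization read at 530/580 nm in 1% BSA-containing PBS, pH 7.4, room temperature.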

[1] = Table 12, deep mutational scanning validation variants of PIANPWT, read-out: Ki (nM) mean ± SEM
[2] = Table 9, Ala-, D-amino acids and N-methylation scans of PIANPWT, read-out: Ki (nM) mean ± SEM
[3] = Table 6, elongation and truncation scan of PIANP binding epitope, read-out: Ki (nM) mean ± SEM
[4] = Table 14, CPPs tagged peptides, read-out: Ki (nM) mean ± SEM
[5] = Table 3, SPOT hit validation and previously reported peptides, read-out: Ki (nM) mean ± SEM

CC[C@H](C)[C@H](NC(=O)[C@H](C)NC(=O)[C@H](Cc1c[nH]c2ccccc12)NC(=O)[C@@H]1CCCN1C(C)=O)C(=O)N[C@H](C(=O)N[C@@H](Cc1c[nH]c2ccccc12)C(=O)NCC(=O)N1CCC[C@H]1C(=O)N[C@H](C(=O)NCC(=O)N[C@@H](CC(=O)O)C(=O)N[C@@H](CCC(=O)O)C(=O)N[C@@H](CC(=O)O)C(N)=O)[C@@H](C)O)C(C)C [PWAIVWGPTGDED] (Ac-PWAIVWGPTGDED-NH2)
Ki (Table 13, peptides for affinity maturation, read-out: Ki (nM) mean ± SEM): 222 ± 1 nM

CC[C@H](C)[C@H](NC(=O)[C@H](C)NC(=O)[C@H](Cc1c[nH]c2ccccc12)NC(=O)[C@@H]1CCCN1C(C)=O)C(=O)N[C@H](C(=O)N[C@@H](Cc1c[nH]c2ccccc12)C(=O)NCC(=O)N1CCC[C@H]1C(=O)N[C@H](C(=O)N[C@@H](CO)C(=O)N[C@@H](CO)C(=O)N[C@@H](CCCNC(=N)N)C(=O)N[C@@H](CCC(=O)O)C(=O)N[C@@H](CC(=O)O)C(N)=O)[C@@H](C)O)C(C)C [PWAIVWGPTSSRED] (Ac-PWAIVWGPTSSRED-NH2)
Ki [1]: 383 ± 3 nM

CC[C@H](C)[C@H](NC(=O)[C@H](C)NC(=O)[C@H](Cc1c[nH]c2ccccc12)NC(=O)[C@@H]1CCCN1C(C)=O)C(=O)N[C@H](C(=O)N[C@@H](Cc1c[nH]c2ccccc12)C(=O)NCC(=O)N1CCC[C@H]1C(=O)N[C@H](C(=O)N[C@H](C(=O)N[C@@H](C)C(=O)N[C@@H](CCCNC(=N)N)C(=O)N[C@@H](CCC(=O)O)C(=O)N[C@@H](CC(=O)O)C(N)=O)C(C)C)[C@@H](C)O)C(C)C [PWAIVWGPTVARED] (Ac-PWAIVWGPTVARED-NH2)
Ki [2]: 480 ± 4 nM

CC[C@H](C)[C@H](NC(=O)[C@H](C)NC(=O)[C@H](Cc1c[nH]c2ccccc12)NC(=O)[C@@H]1CCCN1C(C)=O)C(=O)N[C@H](C(=O)N[C@@H](Cc1c[nH]c2ccccc12)C(=O)NCC(=O)N1CCC[C@H]1C(=O)N[C@H](C(=O)N[C@H](C(=O)N[C@@H](CC(=O)O)C(=O)N[C@@H](CCCNC(=N)N)C(=O)N[C@@H](CCC(=O)O)C(=O)N[C@@H](CC(=O)O)C(N)=O)C(C)C)[C@@H](C)O)C(C)C [PWAIVWGPTVDRED] (Ac-PWAIVWGPTVDRED-NH2)
Ki [1]: 379 ± 9 nM

CC[C@H](C)[C@H](NC(=O)[C@H](C)NC(=O)[C@H](Cc1c[nH]c2ccccc12)NC(=O)[C@@H]1CCCN1C(C)=O)C(=O)N[C@H](C(=O)N[C@@H](Cc1c[nH]c2ccccc12)C(=O)NCC(=O)N1CCC[C@H]1C(=O)N[C@H](C(=O)N[C@H](C(=O)N[C@@H](CO)C(=O)N[C@@H](C)C(=O)N[C@@H](CCC(=O)O)C(=O)N[C@@H](CC(=O)O)C(N)=O)C(C)C)[C@@H](C)O)C(C)C [PWAIVWGPTVSAED] (Ac-PWAIVWGPTVSAED-NH2)
Ki [2]: 341 ± 7 nM

CC[C@H](C)[C@H](NC(=O)[C@H](C)NC(=O)[C@H](Cc1c[nH]c2ccccc12)NC(=O)[C@@H]1CCCN1C(C)=O)C(=O)N[C@H](C(=O)N[C@@H](Cc1c[nH]c2ccccc12)C(=O)NCC(=O)N1CCC[C@H]1C(=O)N[C@H](C(=O)N[C@H](C(=O)N[C@@H](CO)C(=O)N[C@@H](CC(=O)O)C(=O)N[C@@H](CCC(=O)O)C(=O)N[C@@H](CC(=O)O)C(N)=O)C(C)C)[C@@H](C)O)C(C)C [PWAIVWGPTVSDED] (Ac-PWAIVWGPTVSDED-NH2)
Ki [1]: 327 ± 6 nM

CC[C@H](C)[C@H](NC(=O)[C@H](C)NC(=O)[C@H](Cc1c[nH]c2ccccc12)NC(=O)[C@@H]1CCCN1C(C)=O)C(=O)N[C@H](C(=O)N[C@@H](Cc1c[nH]c2ccccc12)C(=O)NCC(N)=O)C(C)C [PWAIVWG] (Ac-PWAIVWG-NH2)
Ki [3]: 579 ± 21 nM

CC[C@H](C)[C@H](NC(=O)[C@H](C)NC(=O)[C@H](Cc1c[nH]c2ccccc12)NC(=O)[C@@H]1CCCN1C(C)=O)C(=O)N[C@H](C(=O)N[C@@H](Cc1c[nH]c2ccccc12)C(N)=O)C(C)C [PWAIVW] (Ac-PWAIVW-NH2)
Ki [3]: 706 ± 16 nM

CC[C@H](C)[C@H](NC(=O)[C@H](Cc1ccccc1)NC(=O)[C@H](Cc1c[nH]c2ccccc12)NC(=O)[C@@H]1CCCN1C(C)=O)C(=O)N[C@H](C(=O)N[C@@H](Cc1c[nH]c2ccccc12)C(=O)NCC(=O)N1CCC[C@H]1C(=O)N[C@H](C(=O)N[C@H](C(=O)N[C@@H](CO)C(=O)N[C@@H](CC(=O)O)C(=O)N[C@@H](CCC(=O)O)C(=O)N[C@@H](CC(=O)O)C(N)=O)C(C)C)[C@@H](C)O)C(C)C [PWFIVWGPTVSDED] (Ac-PWFIVWGPTVSDED-NH2)
Ki [1]: 192 ± 4 nM

CC[C@H](C)[C@H](NC(=O)[C@H](Cc1ccccc1)NC(=O)[C@H](Cc1c[nH]c2ccccc12)NC(=O)[C@@H]1CCCN1C(C)=O)C(=O)N[C@H](C(=O)N[C@@H](Cc1c[nH]c2ccccc12)C(=O)NCC(=O)N1CCC[C@H]1C(=O)N[C@H](C(=O)N[C@H](C(=O)N[C@@H](CO)C(=O)N[C@@H](CCCNC(=N)N)C(=O)N[C@@H](CCC(=O)O)C(=O)N[C@@H](CC(=O)O)C(N)=O)C(C)C)[C@@H](C)O)C(C)C [PWFIVWGPTVSRED] (Ac-PWFIVWGPTVSRED-NH2)
Ki [1]: 461 ± 10 nM

CC[C@H](C)[C@H](NC(=O)[C@H](Cc1c[nH]c2ccccc12)NC(=O)[C@@H]1CCCN1C(C)=O)C(=O)N[C@H](C(=O)N[C@H](C(=O)N[C@@H](Cc1c[nH]c2ccccc12)C(=O)NCC(=O)N1CCC[C@H]1C(=O)N[C@H](C(=O)N[C@H](C(=O)N[C@@H](CO)C(=O)N[C@@H](CCCNC(=N)N)C(=O)N[C@@H](CCC(=O)O)C(=O)N[C@@H](CC(=O)O)C(N)=O)C(C)C)[C@@H](C)O)C(C)C)[C@@H](C)CC [PWIIVWGPTVSRED]
Ki [1]: 339 ± 8 nM

CC[C@H](C)[C@H](NC(=O)[C@@H](NC(=O)[C@H](Cc1c[nH]c2ccccc12)NC(=O)[C@@H]1CCCN1C(C)=O)C(C)C)C(=O)N[C@H](C(=O)N[C@@H](Cc1c[nH]c2ccccc12)C(=O)NCC(=O)N1CCC[C@H]1C(=O)N[C@H](C(=O)N[C@H](C(=O)N[C@@H](CO)C(=O)N[C@@H](CCCNC(=N)N)C(=O)N[C@@H](CCC(=O)O)C(=O)N[C@@H](CC(=O)O)C(N)=O)C(C)C)[C@@H](C)O)C(C)C [PWVIVWGPTVSRED] (Ac-PWVIVWGPTVSRED-NH2)
Ki [1]: 302 ± 4 nM

CC[C@H](C)[C@H](NC(=O)[C@H](Cc1ccc(O)cc1)NC(=O)[C@H](Cc1c[nH]c2ccccc12)NC(=O)[C@@H]1CCCN1C(C)=O)C(=O)N[C@H](C(=O)N[C@@H](Cc1c[nH]c2ccccc12)C(=O)NCC(=O)N1CCC[C@H]1C(=O)N[C@H](C(=O)N[C@H](C(=O)N[C@@H](CO)C(=O)N[C@@H](CCCNC(=N)N)C(=O)N[C@@H](CCC(=O)O)C(=O)N[C@@H](CC(=O)O)C(N)=O)C(C)C)[C@@H](C)O)C(C)C [PWYIVWGPTVSRED] (Ac-PWYIVWGPTVSRED-NH2)
Ki [1]: 336 ± 2 nM

CC[C@H](C)[C@H](NC(=O)[C@H](Cc1c[nH]c2ccccc12)NC(=O)[C@H](CC(=O)O)NC(=O)[C@H](CC(=O)O)NC(=O)[C@H](CC(=O)O)NC(=O)[C@H](CCC(=O)O)NC(=O)[C@H](CCCNC(=N)N)NC(=O)[C@H](CCCNC(=N)N)NC(=O)[C@H](CCCNC(=N)N)NC(=O)[C@H](CCCNC(=N)N)NC(C)=O)C(=O)N[C@@H](CC(=O)O)C(=O)N[C@@H](Cc1c[nH]c2ccccc12)C(=O)N[C@@H](Cc1ccc(O)cc1)C(=O)N[C@@H](CC(=O)O)C(=O)N[C@@H](CO)C(=O)N[C@@H](CC(=O)O)C(=O)N[C@@H](CC(=O)O)C(=O)N[C@@H](CC(=O)O)C(N)=O [Peptide 4R-16] (Ac-RRRREDDDWIDWYDSDDD-NH2)
Ki [4]: 20.6 ± 0.2 nM

CC[C@H](C)[C@H](NC(=O)[C@H](Cc1c[nH]c2ccccc12)NC(=O)[C@H](CC(=O)O)NC(=O)[C@H](CC(=O)O)NC(=O)[C@H](CC(=O)O)NC(=O)[C@H](CCC(=O)O)NC(=O)[C@H](CCCNC(=N)N)NC(=O)[C@H](CCCNC(=N)N)NC(=O)[C@H](CCCNC(=N)N)NC(=O)[C@H](CCCNC(=N)N)NC(C)=O)C(=O)N[C@@H](CC(=O)O)C(=O)N[C@@H](Cc1c[nH]c2ccccc12)C(=O)NCC(=O)N1CCC[C@H]1C(=O)N[C@H](C(=O)N[C@@H](CO)C(=O)N[C@@H](CC(=O)O)C(=O)N[C@@H](CC(=O)O)C(=O)N[C@@H](CC(=O)O)C(N)=O)[C@@H](C)O [Peptide 4R-17] (Ac-RRRREDDDWIDWGPTSDDD-NH2)
Ki [4]: 15 ± 1 nM

CC(=O)N[C@@H](CC(=O)O)C(=O)N[C@@H](CO)C(=O)N[C@@H](C)C(=O)N[C@@H](CC(=O)O)C(=O)N[C@@H](C)C(=O)N[C@@H](CCC(=O)O)C(=O)N[C@@H](CCC(=O)O)C(=O)N[C@@H](CC(=O)O)C(=O)N[C@@H](CC(=O)O)C(=O)N[C@@H](CO)C(=O)N[C@@H](CC(=O)O)C(=O)N[C@H](C(=O)N[C@@H](Cc1c[nH]c2ccccc12)C(=O)N[C@@H](Cc1c[nH]c2ccccc12)C(=O)NCC(N)=O)C(C)C [Peptide 11] (Ac-DSADAEEDDSDVWWG-NH2)
Ki (AJAP-1probe, read-out: Ki): 5000 nM | Ki [5]: 5030 ± 171 nM

CC(=O)N[C@@H](CO)C(=O)N[C@@H](C)C(=O)N[C@@H](CC(=O)O)C(=O)N[C@@H](C)C(=O)N[C@@H](CCC(=O)O)C(=O)N[C@@H](CCC(=O)O)C(=O)N[C@@H](CC(=O)O)C(=O)N[C@@H](CC(=O)O)C(=O)N[C@@H](CO)C(=O)N[C@@H](CC(=O)O)C(=O)N[C@H](C(=O)N[C@@H](Cc1c[nH]c2ccccc12)C(=O)N[C@@H](Cc1c[nH]c2ccccc12)C(=O)NCC(=O)NCC(N)=O)C(C)C [Peptide 12] (Ac-SADAEEDDSDVWWGG-NH2)
Ki (AJAP-1probe, read-out: Ki): 1300 nM | Ki [5]: 1300 ± 28 nM

CC(=O)N[C@@H](CCC(=O)O)C(=O)N[C@@H](CC(=O)O)C(=O)N[C@@H](CC(=O)O)C(=O)N[C@@H](CO)C(=O)N[C@@H](CC(=O)O)C(=O)N[C@H](C(=O)N[C@@H](Cc1c[nH]c2ccccc12)C(=O)N[C@@H](Cc1c[nH]c2ccccc12)C(=O)NCC(=O)NCC(=O)N[C@@H](C)C(=O)N[C@@H](CC(=O)O)C(=O)N[C@H](C(=O)N[C@@H](CC(=O)O)C(=O)N[C@@H](Cc1ccc(O)cc1)C(N)=O)[C@@H](C)O)C(C)C [Peptide 13] (Ac-EDDSDVWWGGADTDY-NH2)
Ki (purified peptides, read-out: Ki): 581 nM
